Tests used:
Carbonic anhydrase 9 = Carbonic anhydrase 9 (Homo sapiens, UniProt Q16790)
Description: Inhibition of human recombinant carbonic anhydrase 9 by CO2 hydration method

Carbonic anhydrase 1 = Carbonic anhydrase 1 (Homo sapiens, UniProt P00915)
Description: Inhibition of human recombinant carbonic anhydrase 1 by CO2 hydration method

Carbonic anhydrase 2 = Carbonic anhydrase 2 (Homo sapiens, UniProt P00918)
Description: Inhibition of human recombinant carbonic anhydrase 2 by CO2 hydration method

[1] = biological target: 72 kDa type IV collagenase (Homo sapiens, UniProt P08253)
Description: Inhibition of human recombinant MMP2 expressed in mouse myeloma cells

[2] = biological target: Matrix metalloproteinase-9 (Homo sapiens, UniProt P14780)
Matrix metalloproteinase-9, sequence (P14780 whole entry): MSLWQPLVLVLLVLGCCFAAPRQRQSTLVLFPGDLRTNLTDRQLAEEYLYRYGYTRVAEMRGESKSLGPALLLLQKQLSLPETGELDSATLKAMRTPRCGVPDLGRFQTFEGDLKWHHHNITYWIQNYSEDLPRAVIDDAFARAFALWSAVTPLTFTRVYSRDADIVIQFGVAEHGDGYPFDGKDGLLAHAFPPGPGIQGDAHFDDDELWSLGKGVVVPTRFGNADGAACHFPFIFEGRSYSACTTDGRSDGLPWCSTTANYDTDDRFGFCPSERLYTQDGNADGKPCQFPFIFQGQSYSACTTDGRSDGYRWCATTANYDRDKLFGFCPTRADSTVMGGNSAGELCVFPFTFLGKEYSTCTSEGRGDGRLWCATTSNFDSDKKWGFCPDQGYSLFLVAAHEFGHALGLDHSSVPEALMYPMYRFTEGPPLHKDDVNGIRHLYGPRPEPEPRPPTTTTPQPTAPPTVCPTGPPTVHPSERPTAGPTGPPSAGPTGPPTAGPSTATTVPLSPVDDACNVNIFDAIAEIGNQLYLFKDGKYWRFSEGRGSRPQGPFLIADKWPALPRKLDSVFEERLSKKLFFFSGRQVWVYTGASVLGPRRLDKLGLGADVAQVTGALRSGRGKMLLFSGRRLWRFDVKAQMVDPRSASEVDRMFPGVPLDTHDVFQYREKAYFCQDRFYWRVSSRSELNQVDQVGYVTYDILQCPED
Description: Inhibition of human recombinant MMP9 expressed in mouse myeloma cells

Carbonic anhydrase 1, sequence (P00915 whole entry): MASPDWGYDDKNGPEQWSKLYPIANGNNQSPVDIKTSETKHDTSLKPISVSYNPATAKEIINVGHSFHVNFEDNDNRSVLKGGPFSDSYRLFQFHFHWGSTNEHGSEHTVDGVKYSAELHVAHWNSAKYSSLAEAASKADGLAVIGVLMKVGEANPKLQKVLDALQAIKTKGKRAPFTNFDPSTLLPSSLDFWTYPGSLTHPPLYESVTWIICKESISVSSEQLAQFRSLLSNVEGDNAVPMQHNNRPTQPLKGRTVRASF
72 kDa type IV collagenase, sequence (P08253 whole entry): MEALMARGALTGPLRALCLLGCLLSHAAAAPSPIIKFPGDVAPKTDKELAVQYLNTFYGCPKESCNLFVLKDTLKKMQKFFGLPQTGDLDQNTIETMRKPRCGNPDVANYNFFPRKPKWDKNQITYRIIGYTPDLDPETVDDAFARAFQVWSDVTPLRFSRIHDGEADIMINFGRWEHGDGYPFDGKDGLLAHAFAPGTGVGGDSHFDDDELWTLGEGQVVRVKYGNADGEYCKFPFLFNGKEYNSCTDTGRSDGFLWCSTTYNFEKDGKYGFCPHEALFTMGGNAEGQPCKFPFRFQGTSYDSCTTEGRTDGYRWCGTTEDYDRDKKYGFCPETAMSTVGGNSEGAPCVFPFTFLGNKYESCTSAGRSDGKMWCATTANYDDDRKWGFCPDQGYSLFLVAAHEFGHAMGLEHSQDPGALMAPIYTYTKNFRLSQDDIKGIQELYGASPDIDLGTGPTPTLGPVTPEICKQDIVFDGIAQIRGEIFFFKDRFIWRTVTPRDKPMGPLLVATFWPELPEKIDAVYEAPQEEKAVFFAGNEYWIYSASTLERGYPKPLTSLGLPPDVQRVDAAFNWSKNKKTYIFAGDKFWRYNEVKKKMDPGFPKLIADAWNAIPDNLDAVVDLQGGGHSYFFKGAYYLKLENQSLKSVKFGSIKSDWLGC

| Structure (SMILES) | Ki (Carbonic anhydrase 9) | Ki (Carbonic anhydrase 1) | Ki (Carbonic anhydrase 2) | IC50 [1] | IC50 [2] |
| --- | --- | --- | --- | --- | --- |
| CCCCC(NOCc1ccccc1)C(=O)NO (stereo not drawn) | 7.6 µM | 520 µM | 7.8 µM | 33.7 µM | 81.5 µM |
| COc1ccc(S(=O)(=O)N(CC(=O)NO)OC(C)C)cc1 | 9.5 µM | 4.1 µM | 0.091 µM | 4.9 µM | 3.4 µM |
| O=C(CNOCc1ccccc1)NO | 6.7 µM | 490 µM | 94 µM | 94 µM | 256 µM |
| COc1ccc(S(=O)(=O)N(CC(=O)NO)OCc2ccc(OCc3ccccc3)cc2)cc1 | 8.7 µM | 5.9 µM | 0.095 µM | 2.1 µM | 1.83 µM |
| CCC(C)C(NOCc1ccccc1)C(=O)NO (stereo not drawn) | 7.1 µM | 435 µM | 267 µM | 151 µM | 352 µM |
| CCCCCCCCCCCCCCON(CC(=O)NO)S(=O)(=O)c1ccc(OC)cc1 | 7.4 µM | 0.89 µM | 0.097 µM | 30 µM | 33 µM |
| O=C(CNOCc1ccc(Cl)cc1)NO | 8.8 µM | 10 µM | 4.8 µM | 137 µM | 261 µM |
| COc1ccc(S(=O)(=O)N(CC(=O)NO)OCc2ccc(Cl)cc2)cc1 | 9.3 µM | 156 µM | 4.2 µM | 1.5 µM | 0.33 µM |
| CCC(C)ON(C(C(=O)NO)C(C)C)S(=O)(=O)c1ccc(OC)cc1 (stereo not drawn) | 9.2 µM | 9.7 µM | 9.6 µM | 0.73 µM | 0.286 µM |
| CC(NOCc1ccc(Cl)cc1)C(=O)NO (stereo not drawn) | 9.2 µM | 9.8 µM | 4.7 µM | 68 µM | 141 µM |
| COc1ccc(S(=O)(=O)N(CC(=O)NO)OC2C3CC4CC(C3)CC2C4)cc1 (stereo not drawn) | 7.8 µM | 0.9 µM | 0.096 µM | 1.98 µM | 2 µM |
| COc1ccc(S(=O)(=O)N(CC(=O)NO)OCc2ccccc2)cc1 | 7.5 µM | 0.88 µM | 0.096 µM | 1.06 µM | 0.87 µM |
| COc1ccc(S(=O)(=O)N(OC(C)C)C(C(=O)NO)C(C)C)cc1 (stereo not drawn) | 9.3 µM | 9 µM | 0.094 µM | 0.66 µM | 0.37 µM |
| CCON(CC(=O)NO)S(=O)(=O)c1ccc(OC)cc1 | 9 µM | 8.91 µM | 8.7 µM | 9.6 µM | 2.2 µM |
| COc1ccc(S(=O)(=O)N(Cc2cccnc2)[C@@H](C(=O)NO)C(C)C)cc1 [CGS-27023A] | 7.8 µM | 281 µM | 8.6 µM | – | – |
| CCCCC(NOCc1ccc(Cl)cc1)C(=O)NO (stereo not drawn) | 6.9 µM | 10.2 µM | 6.1 µM | 81.8 µM | 125 µM |
